Tests used:
Assay in all cases: biochemical
Set-up in all cases: SelectScreen LanthaScreen kinase binding assay, per cent tracer displacement, mean of two points
Conditions in all cases: tracer displacement
[1] = biological target: CDK9/cyclin K (Homo sapiens, UniProt P50750)
[2] = biological target: WNK1 (Homo sapiens, UniProt Q9H4A3)
[3] = biological target: KIT V559D T670I (Homo sapiens, UniProt P10721, T670I/V559D)
[4] = biological target: T1, BMPR2 (Homo sapiens, UniProt Q13873)
T1 sequence (Q13873 1-1038): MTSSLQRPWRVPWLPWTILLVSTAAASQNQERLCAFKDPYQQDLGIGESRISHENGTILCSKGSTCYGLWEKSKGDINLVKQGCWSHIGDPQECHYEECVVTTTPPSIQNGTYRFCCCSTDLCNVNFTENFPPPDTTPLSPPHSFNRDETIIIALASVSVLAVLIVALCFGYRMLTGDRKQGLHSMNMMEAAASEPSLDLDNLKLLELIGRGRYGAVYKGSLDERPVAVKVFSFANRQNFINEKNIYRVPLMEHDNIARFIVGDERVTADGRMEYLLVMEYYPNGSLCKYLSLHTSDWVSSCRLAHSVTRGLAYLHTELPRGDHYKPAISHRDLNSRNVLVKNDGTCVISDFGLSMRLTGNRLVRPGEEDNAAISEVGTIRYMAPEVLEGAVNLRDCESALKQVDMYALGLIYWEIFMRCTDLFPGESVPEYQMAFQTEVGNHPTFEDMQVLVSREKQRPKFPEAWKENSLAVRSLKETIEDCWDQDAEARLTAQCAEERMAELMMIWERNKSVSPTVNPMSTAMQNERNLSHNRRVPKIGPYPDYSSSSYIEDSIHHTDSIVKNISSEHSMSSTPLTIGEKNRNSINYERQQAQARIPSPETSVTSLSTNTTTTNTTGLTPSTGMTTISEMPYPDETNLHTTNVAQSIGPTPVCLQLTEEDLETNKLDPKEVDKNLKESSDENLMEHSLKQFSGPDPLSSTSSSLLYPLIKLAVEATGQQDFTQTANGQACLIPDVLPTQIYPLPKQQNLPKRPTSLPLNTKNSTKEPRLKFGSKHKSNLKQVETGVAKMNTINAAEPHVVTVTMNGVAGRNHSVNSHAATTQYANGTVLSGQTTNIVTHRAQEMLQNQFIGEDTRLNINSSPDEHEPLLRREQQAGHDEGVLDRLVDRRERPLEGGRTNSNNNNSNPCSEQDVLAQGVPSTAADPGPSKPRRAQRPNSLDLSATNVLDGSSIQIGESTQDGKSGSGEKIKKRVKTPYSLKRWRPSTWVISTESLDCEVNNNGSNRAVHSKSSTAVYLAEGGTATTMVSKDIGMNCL

[5] = biological target: CAMKK2 (CaMKK beta) (Homo sapiens, UniProt Q96RR4)
[6] = biological target: T2, ADCK3 (Homo sapiens, UniProt Q8NI60)
T2 construct: gene COQ8A

[7] = biological target: T3, MAP3K7/MAP3K7IP1 (TAK1-TAB1) (Homo sapiens, UniProt O43318)
T3 construct: TAK1-TAB1
T3 sequence (O43318 1-606): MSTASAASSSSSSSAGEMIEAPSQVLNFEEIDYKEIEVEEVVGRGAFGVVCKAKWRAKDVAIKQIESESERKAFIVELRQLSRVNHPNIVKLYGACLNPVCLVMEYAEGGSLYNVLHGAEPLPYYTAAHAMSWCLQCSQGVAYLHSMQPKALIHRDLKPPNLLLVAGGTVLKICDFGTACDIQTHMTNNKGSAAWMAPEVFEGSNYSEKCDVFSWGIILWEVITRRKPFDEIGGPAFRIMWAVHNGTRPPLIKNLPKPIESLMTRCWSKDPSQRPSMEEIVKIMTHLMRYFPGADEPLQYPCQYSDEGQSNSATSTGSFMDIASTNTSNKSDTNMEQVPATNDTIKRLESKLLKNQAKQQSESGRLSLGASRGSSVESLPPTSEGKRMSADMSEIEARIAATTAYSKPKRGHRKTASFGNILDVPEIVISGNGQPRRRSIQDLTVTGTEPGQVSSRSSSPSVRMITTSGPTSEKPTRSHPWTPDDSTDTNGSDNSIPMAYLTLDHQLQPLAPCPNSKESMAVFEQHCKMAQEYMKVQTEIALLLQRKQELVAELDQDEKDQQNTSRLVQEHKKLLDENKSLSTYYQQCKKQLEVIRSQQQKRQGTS
T3 sequence (Q15750 1-504 partner): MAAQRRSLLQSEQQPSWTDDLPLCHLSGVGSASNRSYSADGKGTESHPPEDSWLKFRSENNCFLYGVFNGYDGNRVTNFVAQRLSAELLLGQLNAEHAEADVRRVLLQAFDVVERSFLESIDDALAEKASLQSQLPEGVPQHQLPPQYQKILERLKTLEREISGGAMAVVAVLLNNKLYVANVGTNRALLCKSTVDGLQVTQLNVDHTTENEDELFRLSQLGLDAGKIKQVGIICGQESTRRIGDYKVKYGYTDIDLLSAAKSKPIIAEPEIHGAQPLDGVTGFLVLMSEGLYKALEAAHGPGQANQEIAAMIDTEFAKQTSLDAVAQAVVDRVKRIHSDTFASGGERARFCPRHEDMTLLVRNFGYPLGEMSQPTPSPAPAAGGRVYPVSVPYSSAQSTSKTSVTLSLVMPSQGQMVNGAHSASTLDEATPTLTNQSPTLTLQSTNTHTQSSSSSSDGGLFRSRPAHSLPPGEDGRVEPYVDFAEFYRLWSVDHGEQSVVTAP

Chain of KIT V559D T670I (P10721 whole entry V559D/T670I): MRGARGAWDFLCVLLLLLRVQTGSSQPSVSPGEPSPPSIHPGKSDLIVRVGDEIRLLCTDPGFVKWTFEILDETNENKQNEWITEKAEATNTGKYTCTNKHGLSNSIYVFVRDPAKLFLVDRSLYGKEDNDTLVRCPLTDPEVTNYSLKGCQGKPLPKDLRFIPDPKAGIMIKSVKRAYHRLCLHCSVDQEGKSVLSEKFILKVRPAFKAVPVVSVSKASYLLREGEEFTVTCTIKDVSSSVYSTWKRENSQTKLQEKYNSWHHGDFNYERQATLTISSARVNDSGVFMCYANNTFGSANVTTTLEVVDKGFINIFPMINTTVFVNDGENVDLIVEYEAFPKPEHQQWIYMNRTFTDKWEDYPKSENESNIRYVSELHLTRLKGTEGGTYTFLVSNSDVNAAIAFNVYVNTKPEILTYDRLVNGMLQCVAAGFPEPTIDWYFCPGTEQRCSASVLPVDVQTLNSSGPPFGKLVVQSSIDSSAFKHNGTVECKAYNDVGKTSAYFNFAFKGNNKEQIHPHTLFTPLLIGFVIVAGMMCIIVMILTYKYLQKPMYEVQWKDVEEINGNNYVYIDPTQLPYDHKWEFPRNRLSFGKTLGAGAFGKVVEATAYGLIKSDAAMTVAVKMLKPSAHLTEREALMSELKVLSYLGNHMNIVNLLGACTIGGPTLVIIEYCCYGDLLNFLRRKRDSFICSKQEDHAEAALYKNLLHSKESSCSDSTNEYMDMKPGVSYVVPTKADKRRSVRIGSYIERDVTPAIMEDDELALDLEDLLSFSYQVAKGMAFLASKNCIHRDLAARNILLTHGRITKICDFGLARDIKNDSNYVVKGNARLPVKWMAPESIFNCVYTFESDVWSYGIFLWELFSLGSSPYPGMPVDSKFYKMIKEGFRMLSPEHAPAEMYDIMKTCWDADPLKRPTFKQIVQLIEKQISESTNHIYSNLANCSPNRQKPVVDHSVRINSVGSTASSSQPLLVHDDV
Chain of CDK9/cyclin K (P50750 whole entry): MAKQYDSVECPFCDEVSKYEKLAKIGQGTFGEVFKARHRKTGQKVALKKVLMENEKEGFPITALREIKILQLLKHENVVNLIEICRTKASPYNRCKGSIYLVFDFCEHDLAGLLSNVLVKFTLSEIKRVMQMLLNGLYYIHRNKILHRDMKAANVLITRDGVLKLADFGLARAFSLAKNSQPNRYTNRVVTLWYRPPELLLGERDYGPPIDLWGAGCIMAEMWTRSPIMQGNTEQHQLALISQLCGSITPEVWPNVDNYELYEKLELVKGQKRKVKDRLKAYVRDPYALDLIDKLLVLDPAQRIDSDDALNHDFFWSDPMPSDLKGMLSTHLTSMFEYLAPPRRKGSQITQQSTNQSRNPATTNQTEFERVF
Chain of CDK9/cyclin K (O75909 whole entry partner): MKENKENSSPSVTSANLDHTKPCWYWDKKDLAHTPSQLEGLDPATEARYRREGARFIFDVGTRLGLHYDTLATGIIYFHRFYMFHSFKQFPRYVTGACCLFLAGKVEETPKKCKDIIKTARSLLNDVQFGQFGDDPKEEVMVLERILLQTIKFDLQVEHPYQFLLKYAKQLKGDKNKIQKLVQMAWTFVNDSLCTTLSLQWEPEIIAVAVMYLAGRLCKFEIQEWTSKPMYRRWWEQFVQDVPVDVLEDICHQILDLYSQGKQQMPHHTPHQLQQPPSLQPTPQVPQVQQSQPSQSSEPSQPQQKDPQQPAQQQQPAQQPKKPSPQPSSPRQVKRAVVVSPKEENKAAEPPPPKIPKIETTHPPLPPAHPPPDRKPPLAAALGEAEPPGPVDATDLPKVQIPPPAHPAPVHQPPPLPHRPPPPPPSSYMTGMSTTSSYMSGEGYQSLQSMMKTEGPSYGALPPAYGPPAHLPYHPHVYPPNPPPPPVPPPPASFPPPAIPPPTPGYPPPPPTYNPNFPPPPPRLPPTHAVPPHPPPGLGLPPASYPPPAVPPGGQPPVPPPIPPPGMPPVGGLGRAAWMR
Chain of CAMKK2 (CaMKK beta) (Q96RR4 whole entry): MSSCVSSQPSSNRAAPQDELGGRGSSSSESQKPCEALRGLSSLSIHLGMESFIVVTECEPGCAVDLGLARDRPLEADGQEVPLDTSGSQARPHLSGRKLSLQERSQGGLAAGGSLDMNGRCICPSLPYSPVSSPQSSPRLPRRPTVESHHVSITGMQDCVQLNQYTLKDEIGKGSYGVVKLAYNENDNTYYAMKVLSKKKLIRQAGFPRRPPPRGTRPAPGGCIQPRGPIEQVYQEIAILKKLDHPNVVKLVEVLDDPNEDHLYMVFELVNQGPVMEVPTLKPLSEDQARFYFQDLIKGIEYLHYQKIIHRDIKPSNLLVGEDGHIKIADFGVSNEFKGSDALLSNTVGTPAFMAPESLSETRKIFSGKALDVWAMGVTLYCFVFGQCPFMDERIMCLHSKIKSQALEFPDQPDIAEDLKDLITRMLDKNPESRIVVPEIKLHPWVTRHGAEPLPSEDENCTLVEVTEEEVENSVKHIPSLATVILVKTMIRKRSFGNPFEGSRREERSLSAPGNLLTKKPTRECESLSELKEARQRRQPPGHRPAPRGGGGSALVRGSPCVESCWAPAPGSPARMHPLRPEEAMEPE
Chain of WNK1 (Q9H4A3 whole entry): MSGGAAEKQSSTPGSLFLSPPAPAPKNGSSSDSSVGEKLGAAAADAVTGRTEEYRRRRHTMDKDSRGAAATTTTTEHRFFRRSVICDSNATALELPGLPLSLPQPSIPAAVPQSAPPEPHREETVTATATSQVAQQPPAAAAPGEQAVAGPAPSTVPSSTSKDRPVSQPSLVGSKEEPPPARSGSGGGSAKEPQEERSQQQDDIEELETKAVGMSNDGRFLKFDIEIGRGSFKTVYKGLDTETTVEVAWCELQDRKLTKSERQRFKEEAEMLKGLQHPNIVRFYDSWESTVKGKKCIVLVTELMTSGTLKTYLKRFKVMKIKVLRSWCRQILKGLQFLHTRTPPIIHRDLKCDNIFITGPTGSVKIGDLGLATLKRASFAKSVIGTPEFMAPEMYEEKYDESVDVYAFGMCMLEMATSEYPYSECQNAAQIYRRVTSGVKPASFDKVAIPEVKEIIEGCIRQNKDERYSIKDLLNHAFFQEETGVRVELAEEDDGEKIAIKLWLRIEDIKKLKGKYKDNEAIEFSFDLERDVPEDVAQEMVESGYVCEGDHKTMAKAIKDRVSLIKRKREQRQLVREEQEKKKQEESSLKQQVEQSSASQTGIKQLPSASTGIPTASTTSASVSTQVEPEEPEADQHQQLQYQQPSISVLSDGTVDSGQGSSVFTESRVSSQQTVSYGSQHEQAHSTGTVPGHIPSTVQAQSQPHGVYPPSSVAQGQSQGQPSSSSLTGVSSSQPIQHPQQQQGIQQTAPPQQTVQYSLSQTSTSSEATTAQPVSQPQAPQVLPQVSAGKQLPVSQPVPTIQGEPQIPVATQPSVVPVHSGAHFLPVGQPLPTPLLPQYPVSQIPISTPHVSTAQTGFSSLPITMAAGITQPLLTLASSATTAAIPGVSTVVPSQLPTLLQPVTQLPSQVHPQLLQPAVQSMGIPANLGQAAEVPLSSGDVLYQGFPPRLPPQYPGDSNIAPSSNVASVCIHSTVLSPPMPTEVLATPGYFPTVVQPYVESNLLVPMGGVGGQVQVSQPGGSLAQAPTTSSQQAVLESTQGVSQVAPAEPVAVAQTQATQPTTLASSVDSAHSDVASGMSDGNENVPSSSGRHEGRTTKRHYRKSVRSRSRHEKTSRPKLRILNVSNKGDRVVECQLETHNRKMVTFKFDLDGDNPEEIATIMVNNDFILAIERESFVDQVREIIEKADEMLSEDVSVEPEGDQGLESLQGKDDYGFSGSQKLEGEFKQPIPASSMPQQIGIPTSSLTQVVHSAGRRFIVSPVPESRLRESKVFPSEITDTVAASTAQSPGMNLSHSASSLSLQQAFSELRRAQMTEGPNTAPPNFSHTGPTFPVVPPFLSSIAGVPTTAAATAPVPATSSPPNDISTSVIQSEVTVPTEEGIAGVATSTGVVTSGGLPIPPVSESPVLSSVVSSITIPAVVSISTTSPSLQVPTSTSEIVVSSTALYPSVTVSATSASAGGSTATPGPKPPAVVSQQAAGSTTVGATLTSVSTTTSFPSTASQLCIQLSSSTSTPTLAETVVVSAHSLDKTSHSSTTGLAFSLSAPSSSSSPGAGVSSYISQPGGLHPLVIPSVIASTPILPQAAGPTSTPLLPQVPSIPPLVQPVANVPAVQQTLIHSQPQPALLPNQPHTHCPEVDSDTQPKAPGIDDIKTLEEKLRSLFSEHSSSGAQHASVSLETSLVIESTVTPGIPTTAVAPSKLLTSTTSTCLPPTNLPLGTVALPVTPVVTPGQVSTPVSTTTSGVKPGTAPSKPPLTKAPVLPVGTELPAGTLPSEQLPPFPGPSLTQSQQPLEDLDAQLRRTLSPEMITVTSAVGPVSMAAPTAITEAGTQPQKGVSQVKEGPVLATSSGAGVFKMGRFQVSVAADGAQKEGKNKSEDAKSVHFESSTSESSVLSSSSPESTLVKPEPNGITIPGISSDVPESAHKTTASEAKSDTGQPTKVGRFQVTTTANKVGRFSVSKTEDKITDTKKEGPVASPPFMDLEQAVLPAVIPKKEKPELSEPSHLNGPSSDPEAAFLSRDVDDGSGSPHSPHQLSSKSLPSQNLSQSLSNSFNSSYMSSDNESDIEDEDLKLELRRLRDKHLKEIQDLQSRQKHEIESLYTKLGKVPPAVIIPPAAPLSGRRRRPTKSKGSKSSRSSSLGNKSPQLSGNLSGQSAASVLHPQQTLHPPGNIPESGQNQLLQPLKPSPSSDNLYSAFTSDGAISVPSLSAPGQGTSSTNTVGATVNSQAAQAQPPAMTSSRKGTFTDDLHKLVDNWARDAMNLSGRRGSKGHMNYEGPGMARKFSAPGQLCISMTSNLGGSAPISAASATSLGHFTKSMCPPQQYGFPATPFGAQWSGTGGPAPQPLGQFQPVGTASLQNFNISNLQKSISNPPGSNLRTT

Row | inhibition at 1 µM [1] | inhibition at 3 µM [1] | inhibition at 10 µM [1] | inhibition at 1 µM [2] | inhibition at 3 µM [2] | inhibition at 10 µM [2] | inhibition at 1 µM [3] | inhibition at 3 µM [3] | inhibition at 10 µM [3] | inhibition at 1 µM [4] | inhibition at 3 µM [4] | inhibition at 10 µM [4] | inhibition at 1 µM [5] | inhibition at 3 µM [5] | inhibition at 10 µM [5] | inhibition at 1 µM [6] | inhibition at 3 µM [6] | inhibition at 10 µM [6] | inhibition at 1 µM [7] | inhibition at 3 µM [7] | SMILES | also measured
1 | -2.66% | -5.46% | -1.18% | -6.21% | -5.06% | -3.46% | -4.48% | 0.47% | 6.38% | -1.13% | 0.974% | 3.06% | -0.673% | -0.395% | 3.84% | -3.76% | 8.79% | 13.7% | -3.93% | -9.87% | O=C(CSc1nc2nccnc2c(=O)n1CCc1ccccc1)Nc1nccs1 [compound 1, PITCOIN1] | inhibition at 10 µM [7]: -11.5%
2 | 0.179% | -3.08% | -7.54% | -2.33% | -3.62% | 0.594% | -12.1% | 0.144% | 1.37% | 11.6% | 13.1% | 17.3% | 2.3% | 4.67% | 4.93% | 8.78% | 18.3% | 9.67% | -2.55% | -10.1% | CS(=O)(=O)Nc1cccc(-c2csc(NC(=O)CSc3nc4nccnc4c(=O)n3CCc3ccccc3)n2)c1 [compound 3, PITCOIN3] | inhibition at 10 µM [7]: -10.1%
